Experiments:
[1] = tested on: Monocotyledonous and dicotyledonous test plants; assay: Herbicidal action before emergence of the plants (pre-emergence action), greenhouse pot test, 9-level rating after 4 weeks; assay type: in vivo; design: key: 9-level scale: 1 = complete damage, 9 = no effect; conditions: 250 g/ha, rated after 4 weeks, 9-level scale
Procedure: Herbicidal Action Before Emergence of the Plants (Pre-Emergence Action)
Monocotyledonous and dicotyledonous test plants are sown in standard soil in pots. Immediately after sowing, the test substances are sprayed on at an optimum dosage (500 l of water/ha) as an aqueous suspension (prepared from a wettable powder (example F3, b) according to WO 97/34485) or emulsion (prepared from an emulsion concentrate (example F1, c) according to WO 97/34485). The test plants are then grown under optimum conditions in a greenhouse.
After a test period of 4 weeks, the test is evaluated using a 9-level scale of ratings (1=complete damage, 9=no effect). Ratings of 1 to 4 (in particular 1 to 3) mean good to very good herbicidal action.

[2] = tested on: Monocotyledonous and dicotyledonous test plants; assay: Post-emergence herbicidal action, greenhouse pot test, sprayed at the 2- to 3-leaf stage, 9-level rating after 2 to 3 weeks; assay type: in vivo; design: key: 9-level scale: 1 = complete damage, 9 = no effect; conditions: 250 g/ha, rated after 2 to 3 weeks, 9-level scale
Outline: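 Plants grown in standard soil in pots; test substances sprayed at the 2- to 3-leaf stage at optimum dosage (500 l water/ha) as aqueous suspension or emulsion from formulated concentrates. Plants then kept in the greenhouse under optimum conditions; rated after 2 to 3 weeks on a 9-level scale (1=complete damage, 9=no effect).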

| Compound | Pre-emergence action rating, Abutilon [1] | Pre-emergence action rating, Amaranthus [1] | Pre-emergence action rating, Chenop. [1] | Pre-emergence action rating, Digitaria [1] | Pre-emergence action rating, Echino. [1] | Pre-emergence action rating, Panicum [1] | Post-emergence action rating, Abutilon [2] | Post-emergence action rating, Amaranth [2] | Post-emergence action rating, Chenop. [2] | Post-emergence action rating, Digitaria [2] | Post-emergence action rating, Echino. [2] | Post-emergence action rating, Ipopur. [2] | Post-emergence action rating, Panicum [2] | Post-emergence action rating, Xanth. [2] |
| --- | --- | --- | --- | --- | --- | --- | --- | --- | --- | --- | --- | --- | --- | --- |
| COCCOCc1nc(C(F)(F)F)ccc1C(=O)C1=C(O)CCCC1=O [A10-B1] | 1 | 1 | 1 | 2 | 2 | 2 | 2 | 2 | 1 | 2 | 2 | 2 | 2 | 2 |
| COCCOCc1nc(C(F)(F)F)ccc1C(=O)C1=C(O)CC(C)CC1=O (stereo not shown) [A10-B111] | 1 | 1 | – | 1 | 1 | 1 | 3 | 2 | 1 | 2 | 3 | 3 | 2 | 3 |
| COCCOCc1nc(C(F)(F)F)ccc1C(=O)c1cnn(C)c1OS(C)(=O)=O [A10-C28] | 1 | 1 | 1 | 3 | 2 | 1 | 3 | 2 | 1 | 4 | 4 | 3 | 4 | 3 |
| CC#CCOCc1nc(C(F)(F)F)ccc1C(=O)C1=C(O)C2CCC(C2)C1=O (stereo not shown) [A20-B52] | 3 | 3 | – | 1 | 1 | 1 | 2 | 2 | 1 | 2 | 2 | 2 | 1 | 2 |
| COCCOCc1nc(C(F)(F)F)ccc1C(=O)c1cnn(C)c1OS(=O)(=O)c1ccc(C)cc1 [A10-C29] | 1 | 1 | – | 2 | 1 | 2 | 2 | 2 | 1 | 3 | 3 | 1 | 2 | 2 |
| O=C(C1=C(O)C2CCC(C2)C1=O)c1ccc(C(F)(F)F)nc1COCCCO (stereo not shown) [A847-B52] | 4 | 1 | 4 | 3 | 2 | 1 | 2 | 3 | 1 | 2 | 1 | 4 | 1 | 2 |
| C#CCOCc1nc(C(F)(F)F)ccc1C(=O)C1=C(O)C2CCC(C2)C1=O (stereo not shown) [A18-B52] | 2 | 2 | – | 1 | 1 | 1 | 1 | 1 | 1 | 1 | 2 | 2 | 1 | 2 |
| COCCOCc1nc(C(F)(F)F)ccc1C(=O)C1=C(O)C(C)(C)C(=O)C(C)(C)C1=O [A10-B39] | 1 | 1 | 1 | 1 | 1 | 1 | 1 | 1 | 1 | 3 | 3 | 2 | 1 | 2 |
| COCc1nc(C(F)(F)F)ccc1C(=O)c1c(C)nn(C)c1O [A1-C2] | 4 | 3 | 1 | 3 | 3 | 6 | 3 | 2 | 4 | 8 | 4 | 3 | 7 | 4 |
| COCCOCc1nc(C(F)(F)F)ccc1C(=O)C1=C(O)CCC2(CC2)C1=O [A10-B17] | 4 | 2 | 1 | 1 | 1 | 1 | 2 | 2 | 1 | 1 | 2 | 2 | 2 | 2 |
